Converted amounts (≈) assume the structure as drawn.
Experiment: Toxicity in brine shrimp
Assay type: organism-based
Settings: artemia, in vivo

**Q.** For `CN1CCC[C@H]1CCCCCCCCCc1ccccc1`, which LC50 is on record?
**A.** 1 µg/mL (≈ 3.48 µM)
